Consider three compounds from ChEMBL document CHEMBL1201862, “PubChem BioAssay data set” (2004).

Structures are written as SMILES.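 Values below derive from 48-hour exposures of cells grown in 96-well plates, with endpoints linearly interpolated between the two concentrations bracketing the appropriate inhibition level. Here, GI50 denotes the concentration required for 50% inhibition of growth.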 Active and inactive are the calls of the source. Cut-off read from the data, not from the text of the source: active = GI50 up to about 1.1 µM and inactive = higher. Where only a bound is given, the exact number is not on record here.

Among the test systems are SF-295; TK-10; HCC 2998; HL-60; K562; NCI-H226; SN12C; SK-MEL-28; IGROV-1; HOP-62; SNB-19; UACC-62; HCT-15; DLD-1; SK-MEL-2; KM-20L2; DMS-273; HOP-92; MCF7; PC-3.
Common to all, as to test: NCI anticancer screen, dose series, 48 h

Regarding `CS(=O)(=O)C1(Br)S(=O)(=O)OCCOS1(=O)=O`, the GI50 with SF-295, in the test with TK-10, in the test with HCC 2998, in the test on HL-60, in the test with K562 and in the test with NCI-H226 was > 100 µM (inactive) each time. The GI50 with SN12C, with SK-MEL-28, with IGROV-1, in the test with HOP-62, with SNB-19 and in the test with UACC-62 was > 100 µM (inactive) each time. The GI50 is over 100 µM in the test on HCT-15; > 100 µM (inactive) in the test on DLD-1; > 100 µM (inactive) in the test with SK-MEL-2; > 100 µM (inactive) in the test with KM-20L2; > 100 µM (inactive) in the test with DMS-273; > 100 µM (inactive) in the test on HOP-92.
Turning to `Cc1cc(C)n2c(-c3ccccc3)c(C)cc2n1`, the GI50 is 48 µM (inactive) in the test on SF-295; > 100 µM (inactive) in the test on TK-10; 34.8 µM (inactive) in the test with HCC 2998; 5.68 µM (inactive) in the test on HL-60; 8.17 µM (inactive) in the test with K562; 36.2 µM (inactive) in the test on NCI-H226. In addition, the GI50 is 50.5 µM (inactive) with SN12C; > 100 µM (inactive) with SK-MEL-28; 66.2 µM (inactive) with IGROV-1; 53.7 µM (inactive) in the test with HOP-62; 52.2 µM (inactive) in the test with SNB-19; 28.2 µM (inactive) in the test with UACC-62. The GI50 was 16.7 µM in the test on HCT-15; 42.3 µM (inactive) with DLD-1; 15.3 µM (inactive) in the test on SK-MEL-2; 29 µM (inactive) with KM-20L2; 27.5 µM (inactive) in the test with DMS-273; 53.2 µM (inactive) in the test on HOP-92.
For `CC1=NN(c2ccccc2)C(=O)C1C(=O)C(=O)Nc1ccc(C)cc1C` (stereo unspecified), the GI50 in the test on SF-295, in the test with TK-10, in the test on HCC 2998, in the test on HL-60, in the test with K562 and with NCI-H226 was > 100 µM (inactive) in each case. Moreover, the GI50 in the test with SN12C, in the test on MCF7, in the test on SK-MEL-28, in the test with PC-3, in the test on IGROV-1 and with HOP-62 was > 100 µM (inactive) throughout. For the same compound, the GI50 in the test on SNB-19 was > 100 µM (inactive); in the test on UACC-62, > 100 µM (inactive); in the test on HCT-15, over 100 µM; with DLD-1 it was > 100 µM (inactive); in the test with SK-MEL-2 it was > 100 µM (inactive); in the test with KM-20L2, > 100 µM (inactive). Further, the values for the GI50 with DMS-273 and with HOP-92 were > 100 µM (inactive) and > 94.2 µM (inactive), respectively.
